Some test systems named below: LOX IMVI melanoma; MCF7 breast; U251 CNS; HCC-2998 colon; CCRF-CEM leukemia; K-562 leukemia; HCT-116 colon; NCI/ADR-RES ovarian; COLO 205 colon; BT-549 breast.
Assay in all cases: NCI anticancer screen, dose series, 48 h

The text below walks through data of PubChem BioAssay (NCI).

“And” between values parts separate entries of the source, which are not always exact repeats. Equal values may be shown once.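 In this assay, cells in 96-well plates receive the compound at five concentrations for 48 hours. Endpoints are linearly interpolated between the surrounding concentrations. GI50: concentration for 50% inhibition of growth. Definition used: TGI = concentration required for complete inhibition of growth.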 Bounds are passed on as bounds.

With `COc1cc(Cl)cc(-c2nn(C(=O)NCCN3CCOCC3)cc2-c2ccncc2)c1`, the GI50 in the assay on LOX IMVI melanoma was 5.14 µM; with MCF7 breast it was 3.54 µM; in the assay on U251 CNS it was 4.7 µM; in the assay with HCC-2998 colon, 7.77 µM; with CCRF-CEM leukemia it was 5.91 µM; with K-562 leukemia, 4.12 µM. The GI50 in the assay on HCT-116 colon was 4.13 µM; in the assay with NCI/ADR-RES ovarian it was 2.87 µM; in the assay with COLO 205 colon, 3.16 µM; in the assay on BT-549 breast it was 3.87 µM. For the same compound, the TGI in the assay on LOX IMVI melanoma was 69.9 µM; in the assay on MCF7 breast it was greater than 100 µM; in the assay on U251 CNS, greater than 100 µM; with HCC-2998 colon, 39.7 µM; in the assay with CCRF-CEM leukemia, greater than 100 µM; in the assay with K-562 leukemia, greater than 100 µM. Besides, the TGI is 51.2 µM in the assay on HCT-116 colon, greater than 100 µM in the assay on NCI/ADR-RES ovarian, 11.2 µM in the assay with COLO 205 colon and 35.2 µM with BT-549 breast.
On to `CN1CCN(CCc2cccc(C(=O)c3cnn(-c4ccc(F)cc4)c3N)c2)CC1`, for which the GI50 in the assay with LOX IMVI melanoma, in the assay with MCF7 breast, in the assay with U251 CNS, in the assay with HCC-2998 colon, in the assay with CCRF-CEM leukemia and in the assay on K-562 leukemia was greater than 25 µM each time. The GI50 in the assay on HCT-116 colon, with NCI/ADR-RES ovarian, in the assay on COLO 205 colon and in the assay with BT-549 breast was greater than 25 µM throughout. Moreover, the TGI with LOX IMVI melanoma, in the assay on MCF7 breast, in the assay on U251 CNS, with HCC-2998 colon, in the assay on CCRF-CEM leukemia and with K-562 leukemia was greater than 25 µM each time. Also, the TGI in the assay with HCT-116 colon, with NCI/ADR-RES ovarian, in the assay on COLO 205 colon and with BT-549 breast was greater than 25 µM each time.
With `COc1ccc(N2C(C)=C(C#N)C34C(=O)N(c5ccccc5)C(=O)C3=C(O)C=CC24O)cc1` (stereo unspecified), the GI50 is 5.24 µM in the assay on LOX IMVI melanoma; 10.6 µM in the assay on MCF7 breast; 13 µM in the assay on U251 CNS; 9.88 µM in the assay with HCC-2998 colon; 3.09 µM in the assay with CCRF-CEM leukemia; 28.3 µM with K-562 leukemia. Moreover, the GI50 in the assay with HCT-116 colon is 9.73 µM; in the assay with NCI/ADR-RES ovarian, 29 µM; with COLO 205 colon, 10.8 µM; in the assay with BT-549 breast, 9.75 µM. The TGI is 18.8 µM in the assay on LOX IMVI melanoma; 34.9 µM with MCF7 breast; 25.7 µM with U251 CNS; 23.6 µM in the assay with HCC-2998 colon; 15.6 µM in the assay on CCRF-CEM leukemia; greater than 100 µM with K-562 leukemia. Besides, the TGI in the assay with HCT-116 colon worked out at 25.5 µM; with NCI/ADR-RES ovarian it was 91 µM; in the assay with COLO 205 colon, 23.2 µM; in the assay with BT-549 breast it was 22.4 µM.
As to `CNC(=O)c1cncc(/C=C/c2ccccc2C)c1`, the GI50 in the assay on LOX IMVI melanoma, in the assay with MCF7 breast, in the assay on U251 CNS, with HCC-2998 colon, with CCRF-CEM leukemia and in the assay on K-562 leukemia was greater than 25 µM each time. The GI50 with HCT-116 colon, with NCI/ADR-RES ovarian, in the assay with COLO 205 colon and in the assay with BT-549 breast was greater than 25 µM throughout. For the same compound, the TGI with LOX IMVI melanoma, with MCF7 breast, in the assay on U251 CNS, in the assay with HCC-2998 colon, with CCRF-CEM leukemia and in the assay with K-562 leukemia was greater than 25 µM each time. In addition, the TGI with HCT-116 colon, in the assay on NCI/ADR-RES ovarian, with COLO 205 colon and with BT-549 breast was greater than 25 µM in each case.
Turning to `COc1cc(C2c3cc4c(cc3[C@@H](Nc3ccc(C#N)cc3)C3COC(=O)[C@H]23)OCO4)cc(OC)c1O` (stereo partly specified), the TGI in the assay on LOX IMVI melanoma is 9.52 µM; with MCF7 breast, 40.4 µM and 75 µM and > 100 µM; with HCC-2998 colon it was 5.11 µM and 2.11 µM; in the assay with HCT-116 colon, 10.8 µM and 2.45 µM and 11.4 µM; with NCI/ADR-RES ovarian it was 11.6 µM and 41.3 µM and 21.2 µM; with COLO 205 colon, 13 µM and 8.41 µM and 11.5 µM. For the same compound, the TGI in the assay on BT-549 breast is 33.8 µM and 7.42 µM. Also, the GI50 in the assay with MCF7 breast is 0.329 µM and 0.188 µM; in the assay on U251 CNS it was 0.879 µM; in the assay with HCC-2998 colon, 1.02 µM; in the assay on CCRF-CEM leukemia, 0.147 µM; in the assay with K-562 leukemia, 0.987 µM and 1.85 µM; in the assay on HCT-116 colon, 0.452 µM and 0.389 µM. For the same compound, the GI50 in the assay on NCI/ADR-RES ovarian is 6.59 µM and 2.68 µM; in the assay with COLO 205 colon, 1.98 µM and 1.38 µM; with BT-549 breast it was 1.71 µM.
Take `Cc1ccc(/C=C2\CN(C(=O)OC(C)(C)C)C/C(=C\c3ccc(C)cc3)C2=O)cc1`: the GI50 is 0.0743 µM with LOX IMVI melanoma; 0.205 µM in the assay with MCF7 breast; 0.489 µM in the assay on U251 CNS; 0.268 µM with HCC-2998 colon; 0.587 µM in the assay with CCRF-CEM leukemia; 0.332 µM in the assay on K-562 leukemia. In addition, the GI50 in the assay with HCT-116 colon is 0.058 µM; in the assay with NCI/ADR-RES ovarian it was 0.281 µM; in the assay with COLO 205 colon, 0.597 µM; in the assay with BT-549 breast it was 0.221 µM. The TGI was greater than 100 µM with LOX IMVI melanoma; greater than 100 µM in the assay with MCF7 breast; greater than 100 µM in the assay on U251 CNS; 0.927 µM in the assay with HCC-2998 colon; greater than 100 µM in the assay with CCRF-CEM leukemia; greater than 100 µM with K-562 leukemia. The TGI with HCT-116 colon is 13.7 µM; with NCI/ADR-RES ovarian it was greater than 100 µM; with COLO 205 colon, 4.08 µM; in the assay with BT-549 breast it was 28.7 µM.
For the compound `COC1(C(=O)N[C@@H](C)c2ccc(-n3cc(F)cn3)nc2)CCC(c2nc(C)cc(Nc3cc(C)[nH]n3)n2)CC1` (stereo partly specified), the GI50 in the assay on LOX IMVI melanoma is 0.714 µM; in the assay with MCF7 breast it was 1.53 µM; in the assay on U251 CNS, 1.25 µM; in the assay with HCC-2998 colon it was 11.1 µM; with CCRF-CEM leukemia, 11 µM; with K-562 leukemia, 3.27 µM. Also, the GI50 in the assay with HCT-116 colon was 2.61 µM; in the assay on NCI/ADR-RES ovarian, 3.74 µM; in the assay on COLO 205 colon, 3.83 µM; in the assay with BT-549 breast, 0.627 µM. For the same compound, the TGI in the assay on LOX IMVI melanoma is 2.54 µM; with MCF7 breast, 14.6 µM; in the assay with U251 CNS, 22.6 µM; in the assay with HCC-2998 colon, 23.3 µM; in the assay with CCRF-CEM leukemia, greater than 100 µM; in the assay with K-562 leukemia it was greater than 100 µM. The TGI amounted to 14 µM in the assay with HCT-116 colon, 17.7 µM with NCI/ADR-RES ovarian, 23.7 µM in the assay on COLO 205 colon and 6.01 µM in the assay on BT-549 breast.
Consider `CC(C)(C)C[C@H]1NC(C(=O)NCC[C@H](O)CO)[C@H](c2cccc(Cl)c2)[C@@]12C(=O)Nc1cc(Cl)c(F)cc12` (stereo partly specified), for which the GI50 is 3.12 µM in the assay on LOX IMVI melanoma; 1.61 µM with MCF7 breast; 15 µM in the assay on U251 CNS; 16.2 µM with HCC-2998 colon; 17.7 µM in the assay on CCRF-CEM leukemia; 14.8 µM in the assay with K-562 leukemia. The GI50 with HCT-116 colon was 3.07 µM; with NCI/ADR-RES ovarian, 37 µM; in the assay on COLO 205 colon, 16.1 µM; with BT-549 breast, 16.3 µM. For the same compound, the TGI was found to be 19.1 µM in the assay on LOX IMVI melanoma; 11.7 µM in the assay with MCF7 breast; 30.5 µM in the assay on U251 CNS; 31.1 µM in the assay with HCC-2998 colon; 45.9 µM in the assay on CCRF-CEM leukemia; 43.6 µM with K-562 leukemia. In addition, the TGI is 16.3 µM with HCT-116 colon, greater than 100 µM with NCI/ADR-RES ovarian, 30.7 µM with COLO 205 colon and 34.2 µM with BT-549 breast.
As to `Cc1ccc2c(ccc3c[n+]4c5ccccc5ccc4n32)c1`, the GI50 in the assay on LOX IMVI melanoma is 1.32 µM; in the assay with MCF7 breast, 2.07 µM; with U251 CNS, 0.361 µM; in the assay with HCC-2998 colon, 1.27 µM; in the assay with CCRF-CEM leukemia, 2.46 µM; in the assay on K-562 leukemia, 0.584 µM. The GI50 with HCT-116 colon is 1.85 µM; with NCI/ADR-RES ovarian, greater than 100 µM; in the assay with COLO 205 colon, 0.485 µM; in the assay on BT-549 breast, 0.434 µM. Besides, the TGI was found to be 3.25 µM in the assay with LOX IMVI melanoma; 8.49 µM with MCF7 breast; 2.12 µM in the assay with U251 CNS; 2.98 µM with HCC-2998 colon; 10.6 µM in the assay on CCRF-CEM leukemia; 14.4 µM in the assay with K-562 leukemia. The TGI in the assay with HCT-116 colon was 7.51 µM; in the assay with NCI/ADR-RES ovarian, greater than 100 µM; with COLO 205 colon it was 2.35 µM; in the assay on BT-549 breast, 2.41 µM.
In the case of `Cc1[c-]onc1C.Cc1[c-]onc1C.[Ag].[Ag].[NH-]S(=O)(=O)c1ccc(N=Nc2cc(N=Nc3ccc(S([NH-])(=O)=O)cc3)c3c(NC(=O)C(Cl)Cl)cccc3c2OC(=O)C(Cl)Cl)cc1`, the GI50 in the assay on LOX IMVI melanoma is 7.75 µM; in the assay on MCF7 breast, 2.12 µM; in the assay on U251 CNS, 8.45 µM; in the assay on HCC-2998 colon it was 10.9 µM; in the assay on CCRF-CEM leukemia, 9.28 µM; in the assay on K-562 leukemia it was 3.99 µM. The GI50 was 5.12 µM in the assay with HCT-116 colon, 21 µM in the assay on NCI/ADR-RES ovarian, 5.15 µM in the assay with COLO 205 colon and 7.57 µM with BT-549 breast. Further, the TGI is 18.3 µM with LOX IMVI melanoma; greater than 50 µM in the assay on MCF7 breast; 18.8 µM in the assay on U251 CNS; 26 µM in the assay with HCC-2998 colon; 32.7 µM in the assay with CCRF-CEM leukemia; 32.2 µM with K-562 leukemia. Moreover, the TGI in the assay with HCT-116 colon was 18.2 µM; in the assay with NCI/ADR-RES ovarian, greater than 50 µM; in the assay with COLO 205 colon, 30.4 µM; with BT-549 breast, 14.8 µM.
